These results are taken from patent US20260355251A1, “COMPOSITION FOR PROMOTING HAIR GROWTH” (Idea Therapeutics SL, priority 2023, published 2026).

The test system of test [1] is hair follicle cultures. The note with it: between ATP and adenosine; cited from earlier work.
The subject of test [2] is androgen receptors. The note with it: hair follicles; cited from earlier work.
Test [3] deals with AGA Model. The experiment in a line: Macroscopic blind assessment of hair growth in DHT-induced AGA model mice (Example 5). The test is classed as in vivo, C57BL6 mice (males). The note with it: male mice, day 21, intradermal on day 0 and day 3, ATP 100 μM. The procedure:
The compositions for promoting hair growth of the invention were tested in vivo in mice, according to the following procedure.
A total of 45 6-week-old C57BL6 mice (males) from Charles River Laboratories were used.
The animals were acclimatized for 6 days, and they were administered 1 mg of DHT (5α-androstan-17β-ol-3-one, Sigma) in 100 μL of 50% DMSO (Merck)/50% Isotonic Saline Serum (Fresenius Kabi) subcutaneously for […] (5 days a week), resulting 19 administrations, instead of 20, because the dose was omitted on day 21, when the final assessment of hair growth took place. The administration of DHT began at day-4 of the testing.
The concentration of ATP in Groups 3, 4, 5 and 6 was 100 μM.
After 4 days of administration of the DHT solution (day 0), the target area was depilated using an electric shaver in the area delimited by a template. Subsequently, depilatory cream was applied with the aim of uniformizing the beginning of the anagen phase in all mice. This procedure was performed using inhalation sedation with 2% Isoflurane, maintaining the body temperature of the animals with an electric blanket and an infrared lamp. (FIG. 1). […]

Consider `Nc1ncnc2c1ncn2[C@@H]1O[C@H](COP(=O)(O)OP(=O)(O)OP(=O)(O)O)[C@@H](O)[C@H]1O` [ATP, adenosine triphosphate], for which, in test [1], the “synergistic action on hair growth of hair follicle cultures” value is on record as “synergistic action”.

For the molecule `C[C@]12CCC(=O)C[C@@H]1CC[C@@H]1[C@@H]2CC[C@]2(C)[C@@H](O)CC[C@@H]12` [DHT, 5α-androstan-17β-ol-3-one], the “affinity towards androgen receptors” value in test [2] is on record as “higher affinity towards androgen receptors in the hair follicles”.

Regarding `Nc1ncnc2c1ncn2[C@@H]1O[C@H](CO)[C@@H](O)[C@H]1O` [adenosine], the “synergistic action on hair growth of hair follicle cultures” value in test [1] is given as “synergistic action”.

As for `Nc1ncnc2c1ncn2[C@@H]1O[C@H](COP(=O)(O)OP(=O)(O)OP(=O)(O)O)[C@@H](O)[C@H]1O` [ATP non-encapsulated, adenosine triphosphate], in test [3] (ADSCs high 4 × 10^6, low 1 × 10^6), the “hair growth level: Intense (% of mice)” value came to 80%. Further, the “hair growth level: Moderate (% of mice)” value in test [3] (ADSCs high 4 × 10^6) stood at 20%.
